Experimental data taken from patent publication US8741947B2, “Biologically active macrolides, compositions, and uses thereof” (The United States of America, as represented by the …, priority 2000, dated 2014).
≈ marks a conversion by molar mass, not a printed value.

Columns and labels:
[1] = target: Chromaffin Granule Membrane V-ATPase; test: V-ATPase inhibitory assay, chromaffin granule membrane; type: biochemical; conditions: Chromaffin Granule Membrane V-ATPase (bovine); read-out: V-ATPase (Ki, nM) CGM
Experimental: (§1) The V-ATPase inhibitory assays were performed on representative compound(s) of the present invention using non-mammalian or mammalian (e.g., bovine cromaffin granule) V-ATPases as described by Bowman et al., Proc. Natl. Acad. Sci. USA, 85, 7972-7976, 1988.

[2] = target: Neurospora crassa vacuolar membrane V-ATPase; test: V-ATPase inhibitory assay, Neurospora crassa vacuolar membrane; type: biochemical; conditions: read-out: V-ATPase (Ki, nM) NCVM
Experimental: as §1

[3] = test system: melanoma (LOX) human tumor cell line; test: 2-day in vitro cytotoxicity assay; type: cell-based; conditions: 2-day in vitro assay
Experimental: (§2) A 2.0 mg solution of chondropsin A in pyridine-d5 was kept at room temperature and ^1H NMR spectra were periodically acquired. […] After 7 days, the pyridine was removed under reduced pressure and the residue was purified by HPLC as described above to give 0.6 mg of a compound that by FABMS, HPLC retention time, ^1H NMR, and HSQC data, was identical to chondropsin D. Thus, chondropsin D can be prepared from chondropsin A via a base-catalyzed transesterification reaction in which the ester migrates from O-34 to O-67. The characterization of chondropsin D was facilitated by spectral analysis of the product of the corresponding base-catalyzed transesterification reaction of the dimethyl ester of chondropsin A (FIG. 1A, compound (3)), which produced the dimethyl ester of chondropsin D (FIG. 1A, compound (9)). Chondropsin D was evaluated for cytotoxic activity towards melanoma (LOX) and leukemia (MOLT-4) human tumor cell lines in a 2-day in vitro assay, the procedure for which is described in Bokesch et al., J. Nat. Prod., 62, 633-635 (1999).

[4] = test system: leukemia (MOLT-4) human tumor cell line; test: 2-day in vitro cytotoxicity assay; type: cell-based; conditions: MOLT-4 leukemia cell line, 2-day in vitro assay
Experimental: as §2

COC(=O)C(C)(C)C(O)C(C)C(=O)C(C)(C)C=CC(=O)NC(C(O)C(C)C)C(O)C(C)C=C(C)C(O)C(C)CCC(O)C(C)C(=O)NC1C(C)OC(=O)C(C(O)C(=O)O)NC(=O)C=CC=CCCC=CC=CCC2CC(C)CC(CC(O)C(C)C(O)C(C)=CC(C)C(O)C(C)=CCC(OC(=O)CC(O)C(=O)O)C(C)C1O)O2 (centres unmarked) [Chondropsin D, chondropsin D]
Ki [1]: > 10000 nM
Ki [2]: 140 nM
IC50 (cytotoxic activity) [3]: approximately 10 ng/mL
IC50 (cytotoxic activity) [4]: ~250 ng/mL (≈ 0.157 µM)

C/C=C/[C@H]1O[C@@](O)([C@@H](C)[C@H](O)[C@H](C)[C@H]2OC(=O)/C(OC)=C/C(C)=C/[C@@H](C)[C@@H](O)[C@@H](CC)[C@@H](O)[C@H](C)C/C(C)=C/C=C/[C@@H]2OC)C[C@@H](O[C@H]2C[C@@H](O)[C@H](OC(N)=O)[C@@H](C)O2)[C@@H]1C [Concanamycin A, concanamycin A, reference compound]
Ki [1]: 6 nM
Ki [2]: 4 nM

CC1=CCC(OC(=O)CC(O)C(=O)O)C(C)C(C(NC(=O)C(C)C(O)CCC(C)C(O)C(C)=CC(C)C(O)C(CC(C)C)NC(=O)C=CC(C)(C)C(=O)C(C)C(O)C(C)C)C(C)O)OC(=O)C(C(O)C(=O)O)NC(=O)C=CC=CCCC=CC=CCC2CC(C)CC(CC(O)C(C)C(O)C(C)=CC(C)C1O)O2 (centres unmarked) [Chondropsin C, chondropsin C]
Ki [1]: 3000 nM
Ki [2]: 80 nM

COC(=O)C(C)(C)C(O)C(C)C(=O)C(C)(C)C=CC(=O)NC(C(O)C(C)C)C(O)C(C)C=C(C)C(O)C(C)CCC(O)C(C)C(=O)NC(C(C)O)C1OC(=O)C(C(O)C(=O)O)NC(=O)C=CC=CCCC=CC=CCC2CC(C)CC(CC(O)C(C)C(O)C(C)=CC(C)C(O)C(C)=CCC(O)C1C)O2 (centres unmarked) [Chondropsin B, chondropsin B]
Ki [1]: 6000 nM
Ki [2]: 200 nM

CO/C1=C\C(C)=C\[C@@H](C)[C@@H](O)[C@@H](C)C/C(C)=C/C=C/[C@H](OC)[C@@H]([C@@H](C)[C@@H](O)[C@H](C)[C@@]2(O)C[C@@H](O)[C@H](C)[C@@H](C(C)C)O2)OC1=O [Bafilomycin A1, bafilomycin A1, reference compound]
Ki [1]: 6 nM
Ki [2]: 13 nM

COC(=O)C(C)(C)C(O)C(C)C(=O)C(C)(C)C=CC(=O)NC(CC(C)C)C(O)C(C)C=C(C)C(O)C(C)CCC(O)C(C)C(=O)NC(C(C)O)C1OC(=O)C(C(O)C(=O)O)NC(=O)C=CC=CCCC=CC=CCC2CC(C)CC(CC(O)C(C)C(O)C(C)=CC(C)C(O)C(C)=CCC(OC(=O)CC(O)C(=O)O)C1C)O2 (centres unmarked) [Chondropsin A, 73-deoxy, 73-deoxychondropsin A]
Ki [1]: 3000 nM
Ki [2]: 100 nM

COC(=O)C(C)(C)C(O)C(C)C(=O)C(C)(C)C=CC(=O)NC(C(O)C(C)C)C(O)C(C)C=C(C)C(O)C(C)CCC(O)C(C)C(=O)NC(C(C)O)C1OC(=O)C(C(O)C(=O)O)NC(=O)C=CC=CCCC=CC=CCC2CC(C)CC(CC(O)C(C)C(O)C(C)=CC(C)C(O)C(C)=CCC(OC(=O)CC(O)C(=O)O)C1C)O2 (centres unmarked) [Chondropsin A, chondropsin A]
Ki [1]: > 10000 nM
Ki [2]: 800 nM

COC(=O)C(O)CC(=O)OC1CC=C(C)C(O)C(C)C=C(C)C(O)C(C)C(O)CC2CC(C)CC(CC=CC=CCCC=CC=CC(=O)NC(C(O)C(=O)OC)C(=O)OC(C(NC(=O)C(C)C(O)CCC(C)C(O)C(C)=CC(C)C(O)C(NC(=O)C=CC(C)(C)C(=O)C(C)C(O)C(C)(C)C(=O)OC)C(O)C(C)C)C(C)O)C1C)O2 (centres unmarked) [Chondropsin A, dimethyl ester, chondropsin A dimethyl ester]
Ki [1]: 500 nM
Ki [2]: 50 nM

CC/C=C\C=C/C(=O)N/C=C/C[C@H]1C[C@@H](O)[C@@H](C)C/C=C/Cc2cccc(O)c2C(=O)O1 [Salicylihalamide A, salicylihalamide A, reference compound]
Ki [1]: 6.5 nM
Ki [2]: > 10000 nM
